Measured values taken from PubChem BioAssay (NCI).
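GI50 marks 50% less growth. TGI: concentration producing complete growth inhibition.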

What was measured:
Experiment in all cases: NCI-60 cell line screen, 384-well format
[1] = test system: HCT-116 colon
[2] = test system: HOP-92 NSCLC
[3] = test system: IGROV1 ovarian
[4] = test system: MDA-MB-231 breast
[5] = test system: MDA-MB-435 melanoma
[6] = test system: NCI/ADR-RES ovarian
[7] = test system: PC-3 prostate
[8] = test system: RPMI-8226 leukemia
[9] = test system: RXF 393 renal
[10] = test system: SK-OV-3 ovarian
[11] = test system: SW-620 colon
[12] = test system: UACC-257 melanoma
[13] = test system: UO-31 renal

CC(C)[C@](O)(c1ccc2cc(OC(F)F)c(OC(F)F)cc2c1)c1cn[nH]n1 showed a GI50 [1] of 13.6 µM, a TGI [1] of 26.9 µM and a GI50 [2] of 16.7 µM. For the same compound, the TGI [2] was 30.4 µM, the GI50 [3] was 17.6 µM and the TGI [3] was 37 µM. For the same compound, the GI50 [4] was 13.2 µM, the TGI [4] was 26.3 µM and the GI50 [5] was 16.9 µM. The TGI [5] was 31.3 µM, the GI50 [6] was 18.7 µM and the TGI [6] was 33.8 µM. For the same compound, the GI50 [7] was 15.9 µM, the TGI [7] was 30.3 µM and the GI50 [8] was 9.27 µM. For the same compound, the TGI [8] was 22.5 µM, the GI50 [9] was 13.8 µM and the TGI [9] was 28.3 µM. The GI50 [10] was 15.4 µM, the TGI [10] was 29.5 µM and the GI50 [11] was 15.2 µM. For the same compound, the TGI [11] was 28.8 µM, the GI50 [12] was 16.5 µM and the TGI [12] was 30.6 µM. For the same compound, the GI50 [13] was 16.6 µM and the TGI [13] was 30.4 µM.
